Results published in PMC10482691, “LTP induction by structural rather than enzymatic functions of CaMKII” (Nature, 2023).
Values joined by “and” are separate entries in the source; they are usually repeats but may differ in a detail not shown here. Equal values may be shown once.

Columns and labels:
[1] = system: paCaMKII binding to GST-2BC; experiment: Blue light-induced paCaMKII pulldown to immobilized GST-2BC; conditions: Dark, 100 µM ADP
Excerpt: Extended Data Fig. 1 paCaMKII photoactivation-induced sLTP requires GluN2B binding. Data are presented as mean values +/− SEM. a, Representative images of GFP-paCaMKII WT and mCherry-2BC expressed in cultured hippocampal neurons before and after blue light stimulation. Time course of correlation indices of GFP-paCaMKII and mCh-2BC after photoactivation. Images were acquired in a single plane ever 10 s (n = 4 cells). Scale bar indicates 10 µm. b, Schematic of blue light-induced paCaMKII pulldown to immobilized GST-2BC. c, Binding of […] to immobilized GST-2BC was induced by blue light in the presence of either 100 ADP µM alone or without nucleotide. (n = 4 independent samples; *p < 0.05; one-way Kruskal Wallis with Dunn’s comparison test). Dark:Light+ADP p = 0.0132; Dark:Light-ADP p = 0.1860; Light+ADP:Light-ADP p = 0.9779. d, Schematic of how K42M and I205K CaMKII mutations affect enzymatic activity and the induction of GluN2B binding. e, Representative images of dissociated mouse WT and GluN2B^ΔCaMKII hippocampal cultures expressing GFP-paCaMKII WT and mCherry cell fill before and after photoactivation. Scale bar indicates 5 µm. n = 9, 9 cells; See Fig. 1f, g (right) for quantification. Source data

[2] = target: purified CaMKIIα binding to GST–GluN2B-c WT (Homo sapiens, UniProt Q9UQM7); experiment: CaMKII binding to immobilized GST–GluN2B-c in vitro; conditions: Ca2+/CaM, 4 mM ADP
Procedure: CaMKII–GluN2B binding assays were done as described[9],[13],[25]. Briefly, GST–GluN2B-c tail (GST–2BC) was immobilized on anti-GST antibody-coated microtiter plates (Thermo Scientific), blocked for 30 min with 5% BSA and then overlaid with […] CaMKII (subunit concentration) in PIPES-buffered saline (pH 7.2) containing 2 mM Ca^2+, 1 μM CaM, 1 mM Mg^2+, 0.1% BSA and 0.1% Tween-20 for 20 min at room temperature. […] After extensive washes in buffer containing 1 mM EGTA, GST–2BC and bound CaMKII were eluted for 10 min in SDS loading buffer at 95 °C. Bound CaMKII was measured via immunoblot.

`Nc1ncnc2c1ncn2[C@@H]1O[C@H](COP(=O)(O)OP(=O)(O)O)[C@@H](O)[C@H]1O` [ADP] was tested, and the “binding to immobilized GST-2BC (immunoblot)” value [1] was 54.536 and 63.536 and 53.536 and the “bound CaMKIIα (immunoblot, relative)” value [2] was 2.712 and 2.4126 and 1.817.
